Drawing on PubChem BioAssay (NCI), this text covers TGI for eight compounds.

Assay in all cases: NCI tumour cell line growth inhibition, 48 h
Assay [1] relates to NCI-H23 lung.
The subject of assay [2] is SNB-19 CNS.
For assay [3], the system named is SN12C renal.
Assay [4] concerns U251 CNS.
Assay [5] relates to T-47D breast.
Assay [6] concerns SK-MEL-5 melanoma.
Assay [7] has as its system RPMI-8226 leukemia.
The test system of assay [8] is SK-MEL-28 melanoma.
The subject of assay [9] is MOLT-4 leukemia.
Assay [10] deals with HCT-116 colon.
Assay [11] concerns NCI/ADR-RES ovarian.
For assay [12], the system named is NCI-H226 lung.
Assay [13] deals with PC-3 prostate.
Assay [14] has as its system OVCAR-5 ovarian.
In assay [15] the test system is RXF 393 renal.
Assay [16] concerns OVCAR-3 ovarian.
The subject of assay [17] is NCI-H522 lung.
Assay [18] deals with HOP-92 NSCLC.

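Five concentrations, 48 hours, 96-well plates. TGI is the concentration that stops growth completely.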

Regarding `O=C1/C(=C\c2ccc([N+](=O)[O-])o2)SC2N=C(COc3ccc(Cl)cc3)NN12` (configuration not stated), the TGI in [1] was found to be 35 µM; in assay [2], 31.1 µM; in assay [3], 29.6 µM; in assay [4] it was 34.7 µM; in assay [5], 7.54 µM; in assay [6] it was 27.1 µM. Also, the TGI in assay [7] was over 100 µM; in assay [8] it was 17.9 µM; in [9], over 100 µM; in [10], 14.5 µM; in assay [11], 42.9 µM; in assay [12], 41.3 µM. Also, the TGI in assay [13] was 24.4 µM; in [14], 47.5 µM; in [15], 31.6 µM; in assay [16], 18.9 µM; in assay [17], 4.81 µM; in assay [18], 4.49 µM.
On to `Cc1cc(C)cc(C(=N)c2ccccc2Cc2cccc3ccccc23)c1`, for which the TGI was 34.1 µM in assay [1]; 43 µM in [2]; 34.8 µM in assay [3]; over 100 µM in assay [4]; 46.3 µM in [5]; 31.9 µM in [6]. In addition, the TGI was 67 µM in [7]; 34.7 µM in [8]; 30.8 µM in assay [9]; 23.2 µM in assay [10]; 46.3 µM in [11]; 29.3 µM in [12]. In addition, the TGI in [13] was over 100 µM; in assay [14], 53.5 µM; in assay [15], 31.9 µM; in [16], 32.9 µM; in assay [17], 24.4 µM; in [18] it was 29 µM.
On to `CN1CCOC1(C)CO` (configuration not stated), for which the TGI in [1], in assay [2], in assay [4], in assay [5], in assay [6] and in [7] was over 100 µM throughout. Further, the TGI in assay [9], in assay [10], in [11], in assay [12], in assay [13] and in [14] was over 100 µM each time. Besides, the TGI in assay [15], in assay [16], in assay [17] and in [18] was over 100 µM throughout.
For the compound `CC(C)=CCS(=O)c1ccccc1NC1=CC(=O)CC(C)(C)C1` (configuration not stated), the TGI is over 100 µM in [1]; over 100 µM in assay [2]; over 100 µM in [3]; 2.42 µM in [4]; over 100 µM in [5]; over 100 µM in assay [6]. Besides, the TGI in assay [7], in assay [8], in assay [9], in [10], in assay [11] and in [12] was over 100 µM throughout. Besides, the TGI in [13], in [14], in assay [15], in [16], in [17] and in assay [18] was over 100 µM in each case.
Turning to `CC1=C(C(N)=O)C(c2ccncc2)C(C#N)=C2SCC(=O)N12` (configuration not stated), the TGI in assay [1], in assay [2], in [3], in [4], in assay [5] and in assay [6] was over 100 µM in each case. The TGI in [7], in assay [8], in [9], in assay [10], in [11] and in [12] was over 100 µM in each case. Further, the TGI in [13], in assay [14], in assay [15], in [16], in assay [17] and in [18] was over 100 µM throughout.
On to `COc1cc(/C=C2\C[C@H]3[C@@H]4CC=C5C[C@@H](O)CC[C@]5(C)[C@H]4CC[C@]3(C)C2=O)cc(OC)c1OC`, for which the TGI in assay [1] was over 100 µM; in [2], over 100 µM; in assay [3] it was over 100 µM; in assay [4], over 100 µM; in [5], 64.2 µM; in [6], 31.9 µM. In addition, the TGI in assay [7] is 45.4 µM; in assay [8] it was over 100 µM; in [9], 68.4 µM; in [10], 47.3 µM; in [11], over 100 µM; in assay [12], over 100 µM. For the same compound, the TGI in assay [13] is over 100 µM; in [14], over 100 µM; in assay [15], 58 µM; in assay [16], over 100 µM; in assay [17] it was 67.8 µM; in assay [18] it was over 100 µM.
As to `O=C(C(=O)N1CCc2ccccc21)c1c[nH]c2ccccc12`, the TGI in [1], in assay [2], in [3], in assay [4], in [5] and in assay [6] was over 10 µM throughout. The TGI in assay [7], in [8], in assay [9], in assay [10], in assay [11] and in assay [12] was over 10 µM in each case. Also, the TGI in assay [13], in assay [14], in assay [15], in assay [16], in assay [17] and in assay [18] was over 10 µM in each case.
For `CC1(C#N)CC(C)(C)C(/C=C2/CC(C)(C)C(/C=C3/OC(=N)CC3(C)C)=N2)=N1` (configuration not stated), the TGI was 60.6 µM in assay [1]; over 100 µM in [2]; 95.9 µM in assay [3]; over 100 µM in [4]; 61.8 µM in assay [5]; 32.4 µM in assay [6]. Moreover, the TGI in [7] was 64 µM; in assay [8] it was over 100 µM; in assay [9], 89.7 µM; in [10], over 100 µM; in assay [11], 54 µM; in assay [12], over 100 µM. In addition, the TGI in assay [13] is over 100 µM; in assay [14], over 100 µM; in [15], 44.5 µM; in [16] it was 45.8 µM; in assay [17], 34 µM; in assay [18], 39.9 µM.
